Source: patent US20250296959A1, “B7-H3 TARGETING PEPTIDES AND CONSTRUCTS THEREOF” (Mariana Oncology Inc., priority 2024, published 2025)
Starred links: 1 amine or outer side, 2 acyl side, 3 side chain; linkers in the order of their positions; H or OH if unused. Positions of bridges follow the written chain, without caps; N, C: chain ends. Non-standard residues stand in square brackets, D forms with d. Residues, ends and D or L forms follow the SMILES beside them. *: point of attachment. Ala(piperidin-4-yl) = O=C([C@H](CC1CCN([*:3])CC1)N[*:1])[*:2]; DOTA = O=C(O)CN1CCN(CC(=O)O)CCN(CC(=O)*)CCN(CC(=O)O)CC1; Phe(4-COOH) = N[C@@H](Cc1ccc(C(=O)O)cc1)C(=O)O; Trp(5-F) = N[C@@H](Cc1c[nH]c2ccc(F)cc12)C(=O)O; γGlu = O=C(O)[C@H](CCC(=O)[*:2])N[*:1]; 1Nal = N[C@@H](Cc1cccc2ccccc12)C(=O)O; Ala(4-THP) = N[C@@H](CC1CCOCC1)C(=O)O; Val(3-OH) = CC(C)(O)[C@H](N)C(=O)O; tBuAla = CC(C)(C)C[C@H](N)C(=O)O; Tle = CC(C)(C)[C@H](N)C(=O)O; hLeu = CC(C)CC[C@H](N)C(=O)O; Nle = CCCC[C@H](N)C(=O)O; AEA = NCCOCC(=O)O

Target: T1, human 4lg B7-H3 (Homo sapiens, UniProt Q5ZPR3)
T1 sequence (Q5ZPR3 29-534): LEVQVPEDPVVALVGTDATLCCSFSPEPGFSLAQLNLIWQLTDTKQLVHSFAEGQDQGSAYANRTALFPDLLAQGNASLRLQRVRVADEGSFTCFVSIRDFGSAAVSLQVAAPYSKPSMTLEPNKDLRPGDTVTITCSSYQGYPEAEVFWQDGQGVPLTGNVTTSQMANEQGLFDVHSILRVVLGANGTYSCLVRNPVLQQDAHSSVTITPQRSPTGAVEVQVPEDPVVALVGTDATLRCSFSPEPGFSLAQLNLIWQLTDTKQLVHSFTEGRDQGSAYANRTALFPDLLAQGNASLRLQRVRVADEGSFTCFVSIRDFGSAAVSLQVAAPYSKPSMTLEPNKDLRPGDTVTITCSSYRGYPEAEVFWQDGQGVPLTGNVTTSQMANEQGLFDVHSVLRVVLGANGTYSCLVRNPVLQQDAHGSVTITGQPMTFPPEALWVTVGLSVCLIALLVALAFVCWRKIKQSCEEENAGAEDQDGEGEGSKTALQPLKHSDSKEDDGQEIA
Experiment: Affinity determination by surface plasmon resonance (SPR) to 4Ig B7-H3
Details: 4Ig B7-H3

[1] = SPR KD—37° C., 37° C. flow cell temperature
[2] = SPR KD—25° C., 25° C. flow cell temperature

Kd [1] | Kd [2] | Structure (SMILES)
1 to 10 nM |  | CC(C)CC[C@H](NC(=O)COCCNC(=O)CC[C@H](NC(=O)CN1CCN(CC(=O)O)CCN(CC(=O)O)CCN(CC(=O)O)CC1)C(=O)O)C(=O)N[C@@H](Cc1ccc(O)cc1)C(=O)N[C@H]1CSSC[C@@H](C(=O)N[C@@H](Cc2c[nH]c3ccc(F)cc23)C(=O)N[C@@H](Cc2ccccc2)C(=O)N[C@H](C(N)=O)C(C)(C)O)NC(=O)[C@H](Cc2ccc(O)cc2)NC(=O)[C@H](C(C)C)NC(=O)[C@H](CC(=O)O)NC(=O)[C@H](CC2CCOCC2)NC(=O)[C@H](CCCCN)NC(=O)CNC(=O)[C@H](C(C)(C)C)NC1=O [compound 393, DOTA-gE-AEA-hLeu-Y-C-Tbg-G-K-ThpA-D-V-Y-C-5FW-F-hydroxyVal-CONH2] ({DOTA-γGlu-AEA}-[hLeu]YC[Tle]GK[Ala(4-THP)]DVYC[Trp(5-F)]F[Val(3-OH)]-NH2; disulfide 3-11)
 | 1 to 10 nM | CC(=O)N[C@@H](CCC(C)C)C(=O)N[C@@H](Cc1ccc(O)cc1)C(=O)N[C@H]1CSSC[C@@H](C(=O)N[C@@H](Cc2c[nH]c3ccc(F)cc23)C(=O)N[C@@H](CC(C)(C)C)C(=O)N[C@H](C(=O)N[C@H](CCCCNC(=O)CN2CCN(CC(=O)O)CCN(CC(=O)O)CCN(CC(=O)O)CC2)C(=O)O)[C@@H](C)O)NC(=O)[C@H](Cc2ccc(O)cc2)NC(=O)[C@H](C(C)C)NC(=O)[C@H](CC(=O)O)NC(=O)[C@H](CC2CCOCC2)NC(=O)[C@H](CCCCN)NC(=O)CNC(=O)[C@H](C(C)(C)C)NC1=O [compound 360, Ac-hLeu-Y-C-Tbg-G-K-ThpA-D-V-Y-C-5FW-tBuAla-Thr-dLys(DOTA)-COOH] (Ac-[hLeu]YC[Tle]GK[Ala(4-THP)]DVYC[Trp(5-F)][tBuAla]T[dK](DOTA)-OH; disulfide 3-11)

The remaining lines, values behind:

Structure (SMILES) | Kd [1] | Kd [2]
CC(=O)N[C@@H](CCC(C)C)C(=O)N[C@@H](Cc1ccc(O)cc1)C(=O)N[C@H]1CSSC[C@@H](C(=O)N[C@@H](Cc2cccc3ccccc23)C(=O)N[C@@H](Cc2ccccc2)C(=O)N2CCC[C@H]2C(=O)N[C@H](CCCCNC(=O)CN2CCN(CC(=O)O)CCN(CC(=O)O)CCN(CC(=O)O)CC2)C(N)=O)NC(=O)[C@H](Cc2ccc(O)cc2)NC(=O)[C@H](C(C)C)NC(=O)[C@H](CC(=O)O)NC(=O)[C@H](Cc2ccc(C(=O)O)cc2)NC(=O)[C@H](CC2CCNCC2)NC(=O)CNC(=O)[C@H](C(C)(C)C)NC1=O [compound 315, Ac-hLeu-Y-C-Tbg-G-PipAla-4COOHPhe-D-V-Y-C-5FW-F-Pro-dLys(DOTA)-CONH2] (Ac-[hLeu]YC[Tle]G[Ala(piperidin-4-yl)][Phe(4-COOH)]DVYC[1Nal]FP[dK](DOTA)-NH2; disulfide 3-11) | 1 to 10 nM | 
CCCC[C@H](NC(C)=O)C(=O)N[C@@H](Cc1ccc(O)cc1)C(=O)N[C@H]1CSSC[C@@H](C(=O)N[C@@H](Cc2c[nH]c3ccccc23)C(=O)N[C@@H](Cc2ccccc2)C(N)=O)NC(=O)[C@H](Cc2ccc(O)cc2)NC(=O)[C@H](C(C)C)NC(=O)[C@H](CC(=O)O)NC(=O)[C@H](Cc2ccc(O)cc2)NC(=O)[C@H](CCCCN)NC(=O)CNC(=O)[C@H](C(C)C)NC1=O [Cpd #7, Ac-Nle-Y-C-V-G-K-Y-D-V-Y-C-W-F-CONH2] (Ac-[Nle]YCVGKYDVYCWF-NH2; disulfide 3-11) | 10 to 100 nM | 
CC(=O)N[C@@H](CCC(C)C)C(=O)N[C@@H](Cc1ccc(O)cc1)C(=O)N[C@H]1CSSC[C@@H](C(=O)N[C@@H](Cc2c[nH]c3ccc(F)cc23)C(=O)N[C@@H](Cc2ccccc2)C(=O)N2CCC[C@H]2C(=O)N[C@H](CCCCNC(=O)CN2CCN(CC(=O)O)CCN(CC(=O)O)CCN(CC(=O)O)CC2)C(N)=O)NC(=O)[C@H](Cc2ccc(O)cc2)NC(=O)[C@H](C(C)C)NC(=O)[C@H](CC(=O)O)NC(=O)[C@H](Cc2ccc(C(=O)O)cc2)NC(=O)[C@H](CCCCN)NC(=O)CNC(=O)[C@H](C(C)C)NC1=O [compound 291, Ac-hLeu-Y-C-V-G-K-4COOHPhe-D-V-Y-C-5FW-F-Pro-dLys(DOTA)-CONH2] (Ac-[hLeu]YCVGK[Phe(4-COOH)]DVYC[Trp(5-F)]FP[dK](DOTA)-NH2; disulfide 3-11) |  | < 1 nM
